According to publication PMC8333425, “Discovery of a dual Ras and ARF6 inhibitor from a GPCR endocytosis screen” (Nature Communications, 2021):
“And” between values parts separate entries of the source, which are not always exact repeats. Equal entries are not always repeated.

What was measured:
RhoA = molecular target: T1, RhoA (Homo sapiens, UniProt P61586); experiment: GST-Rhotekin-RBD pull-down of AT1R-mediated RhoA activation; type: cell-based; conditions: for Rho-GTP/Rho: GST-Rhotekin-RBD, listed as Comp 21
T1 construct: endogenous in cells; host or cells: HEK293SL
Description: Activation of ARF1, ARF6, Ras, and Rho were assessed by using GST pull-down assays. HEK293SL cells were transiently transfected with 3 µg AT1R-flag only (Ras and Rho) or along with 500 ng HA-ARF6 (ARF6) or HA-ARF1 (ARF1). Forty-eight hours later, the HEK293 or MDA-MB-231 cells were serum-starved for 4 h with DMEM containing 20 mM HEPES then pretreated with DMSO or Rasarfin (50 µM) for 30 min. Cells were then stimulated with 1 µM AngII or 100 ng/ml EGF for 0 and 2 min. Cells were then washed once with ice-cold PBS and lysed for 30 min at 4 °C in 300 µl of lysis buffer (pH 7.5, 50 mM Tris-HCl, 140 mM NaCl, 5 mM MgCl2, 10% glycerol (v/v), 1% Nonidet P-40 (v/v), 1 mM dithiothreitol) supplemented with protease inhibitors (1 mM phenylmethyl-sulfonyl fluoride (PMSF), 10 µg/ml leupeptin, 5 µg/ml aprotinin, 1 µg/ml pepstatin A) and phosphatase inhibitors (20 mM NaF, 0.025 mM pervanadate). The samples were cleared by centrifugation and 30 µl (cell lysates) was kept for assessing total protein contents. The remaining was transferred to fresh tubes with 20 µg of either GST, GST-GGA3-PBD, GST-Raf1-RBD or GST-Rhotekin-RBD coupled to glutathione resin and rotated for 1–2 h at 4 °C. Beads were washed twice with lysis buffer and proteins were eluted in 25 μl 2x laemmli buffer by heating at 65 °C for 15 min. Proteins were resolved on 14% SDS-PAGE, transferred to nitrocellulose membranes, and immunoblotted for HA, Ras, RhoA, H-Ras, or ARF6. ImageLab 5.2 software was used to quantify the digital blots as fold of the amount of pulled down protein over total protein. Uncropped coomassie gels and immunoblots are provided in the Source Data file.

A549 cells = experiment: Cell viability assay (MTT), A549; type: cell-based, human
Description: MDA-MB-231 breast cancer cells and A549 lung carcinomas (1500 cells in 150 μl/well) were seeded overnight on a clear 96-well plate. Twenty-four hours later, the cells were treated with 0.1% DMSO, or different concentrations of Rasarfin (as indicated), or 10 µM of 21.4, 21.8 (MDA-MB-231 breast cancer cells) or Doxorubicin for the indicated times at 37 °C. At each time point, 10 μl of 5 mg/ml MTT was added to each well and the plates were incubated for an additional 4 h at 37 °C. The absorbance at 590 nm was measured by plate reader. Experiments were done in triplicate and repeated three times.

T1 sequence (P61586 whole entry): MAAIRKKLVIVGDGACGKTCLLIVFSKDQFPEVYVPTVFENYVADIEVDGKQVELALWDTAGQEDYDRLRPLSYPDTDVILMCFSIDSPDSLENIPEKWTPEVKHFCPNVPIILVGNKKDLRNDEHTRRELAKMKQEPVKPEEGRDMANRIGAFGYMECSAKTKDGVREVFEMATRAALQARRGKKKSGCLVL

Structure (SMILES): CC(C)C(=O)N1CCN(c2ccc(NC(=O)c3cc4ccccc4o3)cc2Cl)CC1 [Compound 21]
- pull-down of Rho-GTP by GST-Rhotekin-RBD from cells stimulated with AT1R (RhoA; 50 μM): nor did it prevent the pull-down of Rho-GTP
- Rho-GTP/Rho (RhoA; AngII): 0.2491 and 0.2385 and 0.2151 and 0.2027
- Rho-GTP/Rho (RhoA; Ctrl): 0.1261 and 0.1465 and 0.07786 and 0.1043
- A549 cell viability (MTT), compared with MDA-MB-231 cells (A549 cells; 10 µM of Rasarfin): more important cell viability effects
- cell viability (MTT signal) (A549 cells; Rasarfin 0.5, 24h): 0.2876 and 0.2844 and 0.2473 and 0.4073 and 0.3734 and 0.2713
- cell viability (MTT signal) (A549 cells; Rasarfin 1, 24h): 0.2899 and 0.2749 and 0.2483 and 0.4128 and 0.3694 and 0.3709
- cell viability (MTT signal) (A549 cells; Rasarfin 2, 24h): 0.2852 and 0.2865 and 0.2518 and 0.3946 and 0.3796 and 0.386
- cell viability (MTT signal) (A549 cells; Rasarfin 5, 24h): 0.2638 and 0.2592 and 0.2504 and 0.3187 and 0.2743 and 0.3116
- cell viability (MTT signal) (A549 cells; Rasarfin 10, 24h): 0.2447 and 0.2619 and 0.2276 and 0.2701 and 0.2102 and 0.246
- cell viability (MTT signal) (A549 cells; Rasarfin 10, 72h): 0.3944 and 0.2496 and 0.4081 and 0.2999 and 0.3697 and 0.3945
